Data set [1] concerns the target recombinant human Estrogen Receptor alpha ligand binding domain (ER alpha-LBD (GST)) (Homo sapiens (Human), UniProt P03372). The experiment in a line: ERα binding assay (LanthaScreen TR-FRET competition). (TR-FRET usually uses a lanthanide donor and a delayed reading to cut background.)
In data set [2] the target is Estrogen Receptor (ERα) in MCF-7 cells (Homo sapiens (Human), UniProt P03372). The experiment in a line: MCF-7 ER down-regulation assay (immuno-fluorescence). It counts as cell-based. The note with it: for % downregulation (in brackets): maximum downregulation.
Description: The ability of compounds to down-regulate Estrogen Receptor (ER) numbers was assessed in a cell based immuno-fluorescence assay using the MCF-7 human ductal carcinoma breast cell line. MCF-7 cells were revived directly from a cryovial (approx 5×10^6 cells) in Assay Medium (phenol red free Dulbecco's Modified Eagle's medium (DMEM); Sigma D5921) containing 2 mM L-Glutamine and 5% (v/v) Charcoal/Dextran treated foetal calf serum. Cells were syringed once using a sterile 18G×1.5 inch (1.2×40 mm) broad gauge needle and cell density was measured using a Coulter Counter (Beckman). […] Following cell seeding, plates were incubated overnight at 37° C., 5% CO2 (Liconic carousel incubator). Test data was generated using the LabCyte Echomodel 555 compound reformatter which is part of an automated workcell (Integrated Echo 2 workcell). Compound stock solutions (10 mM) of the test compounds were used to generate a 384 well compound dosing plate (Labcyte P-05525-CV1). […] 40 μL of DMSO added to wells in row P on the source plate allowed for DMSO normalisation across the dose range. To dose the control wells 40 μL of DMSO was added to row O1 and 40 μL of 100 μM fulvestrant in DMSO was added to row O3 on the compound source plate.
The Echo uses acoustic technology to perform direct microplate-to-microplate transfers of DMSO compound solutions to assay plates. The system can be programmed to transfer volumes as low as 2.5 nL in multiple increments between microplates and in so doing generates a serial dilution of compound in the assay plate which is then back-filled to normalise the DMSO concentration across the dilution range. […] The fixing method described above was carried out on the Integrated Echo 2 workcell. Immunostaining was performed using an automated AutoElisa workcell. The PBS/Proclin was aspirated from all wells and the cells permeabilised with 40 μL PBS containing 0.5% Tween™ 20 (v/v) for 1 hour at room temperature. The plates were washed three times in 250 μL of PBS/0.05% (v/v) Tween 20 with Proclin (PBST with a Biocide preservative) and then 20 μL of ERα (SP1) Rabbit monoclonal antibody (Thermofisher) 1:1000 in PBS/Tween™/3% (w/v) Bovine Serum Albumin was added. The plates were incubated overnight at 4° C. (Liconic carousel incubator) and then washed three times in 250 μL of PBS/0.05% (v/v) Tween™ 20 with Proclin (PBST). The plates were then incubated with 20 μL/well of a goat anti-rabbit IgG AlexaFluor 594 or goat anti-rabbit AlexaFluor 488 antibody (Molecular Probes) with Hoechst at 1:5000 in PBS/Tween™/3% (w/v) Bovine Serum Albumin for 1 hour at room temperature. The plates were then washed three times in 250 μL of PBS/0.05% (v/v) Tween™ 20 with Proclin (PBST with a Biocide preservative). 20 μL of PBS was added to each well and the plates covered with a black plate seal and stored at 4° C. before being read. […] The mean total intensity was normalized for cell number giving the total intensity per cell. The data was exported into a suitable software package (such as Origin) to perform curve fitting analysis.
Data set [3] in a line: Log D (shake flask, 1-octanol/aqueous buffer). It counts as physicochemical.
Data set [4] can be described thus: Thermodynamic solubility (shake-flask). The format is physicochemical. As to conditions: thermodynamic from solid, phosphate buffer pH 7.4, 24 hours.
The nature of data set [5]: Human plasma protein binding (equilibrium dialysis). It counts as in vitro ADME. For orientation: In equilibrium dialysis free small molecules cross a membrane that holds back macromolecules.
Where [6] appears, read: 1-octanol/aqueous buffer, pH 7.4, pH 7.4.
[7] abbreviates: aqueous phosphate buffer, 25 °C, pH 7.4, aqueous buffer.

Values after ≈ are worked out from the molar mass of the structure shown. Where only a bound is given, the exact number is not on record here.

Chain of recombinant human Estrogen Receptor alpha ligand binding domain (ER alpha-LBD (GST)) (P03372 307-554): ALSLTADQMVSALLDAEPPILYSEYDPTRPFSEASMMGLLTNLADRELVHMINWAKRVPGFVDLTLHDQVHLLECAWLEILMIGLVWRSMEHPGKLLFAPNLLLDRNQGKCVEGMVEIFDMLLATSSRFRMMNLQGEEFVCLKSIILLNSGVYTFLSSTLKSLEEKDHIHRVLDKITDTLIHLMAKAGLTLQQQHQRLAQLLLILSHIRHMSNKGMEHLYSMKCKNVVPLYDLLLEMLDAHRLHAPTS
Chain of Estrogen Receptor (ERα) in MCF-7 cells (P03372 whole entry): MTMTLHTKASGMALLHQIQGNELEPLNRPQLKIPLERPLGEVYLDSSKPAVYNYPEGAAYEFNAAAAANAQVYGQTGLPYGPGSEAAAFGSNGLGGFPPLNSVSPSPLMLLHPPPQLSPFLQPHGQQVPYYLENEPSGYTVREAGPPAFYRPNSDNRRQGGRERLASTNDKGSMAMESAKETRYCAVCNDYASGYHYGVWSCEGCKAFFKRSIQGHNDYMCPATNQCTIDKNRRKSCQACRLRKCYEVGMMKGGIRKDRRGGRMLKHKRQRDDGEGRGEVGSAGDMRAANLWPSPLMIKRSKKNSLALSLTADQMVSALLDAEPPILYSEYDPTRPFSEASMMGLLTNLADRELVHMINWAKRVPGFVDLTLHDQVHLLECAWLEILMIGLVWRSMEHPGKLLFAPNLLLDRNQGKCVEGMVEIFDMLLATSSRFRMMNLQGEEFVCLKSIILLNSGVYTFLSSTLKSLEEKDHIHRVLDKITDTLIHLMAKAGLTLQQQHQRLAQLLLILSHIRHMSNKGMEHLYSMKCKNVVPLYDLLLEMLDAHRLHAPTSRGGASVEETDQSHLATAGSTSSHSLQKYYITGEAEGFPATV

As to `COc1ccc(OCCNCCCF)c(F)c1[C@@H]1c2[nH]c3ccccc3c2C[C@@H](C)N1CC(F)F` [Example 82, N-(2-(3-((1R,3R)-2-(2,2-difluoroethyl)-3-methyl-2,3,4,9-tetrahydro-1H-pyrido[3,4-b]indol-1-yl)-2-fluoro-4-methoxyphenoxy)ethyl)-3-fluoropropan-1-amine], the IC50 in data set [1] stood at 0.8 nM; in data set [2], 0.042 nM. This compound had a logD in data set [3] (pH 7.4) of 2.9. In addition, the solubility at 24 h in data set [4] (aqueous buffer, 25° C.) came out at 475 µM (≈ 234 µg/mL). Further, in data set [5], the “Human plasma protein binding (% free)” value amounted to 1.9 % free.

For `Cc1c(OCCNCCCF)ccc(F)c1[C@@H]1c2[nH]c3ccccc3c2C[C@@H](C)N1CCC#N` [Example 87, 3-((1R,3R)-1-(6-fluoro-3-(2-((3-fluoropropyl)amino)ethoxy)-2-methylphenyl)-3-methyl-1,3,4,9-tetrahydro-2H-pyrido[3,4-b]indol-2-yl)propanenitrile], the IC50 turned out to be 0.54 nM in data set [1] and 0.065 nM in data set [2]. Further, the logD in data set [3] (setting [6]) is 3.1. Besides, in data set [4] (setting [7]), the solubility at 24 h was found to be 71 µM (≈ 33.1 µg/mL). Further, the “Human plasma protein binding (% free)” value in data set [5] was 1.6 % free.

With `C[C@@H]1Cc2c([nH]c3ccccc23)[C@@H](c2cncc(OCCNCCCF)c2)N1CC(F)(F)F` [Example 101, 3-fluoro-N-(2-((5-((1R,3R)-3-methyl-2-(2,2,2-trifluoroethyl)-2,3,4,9-tetrahydro-1H-pyrido[3,4-b]indol-1-yl)pyridin-3-yl)oxy)ethyl)propan-1-amine], the IC50 amounted to 9.2 nM in data set [1] and 27 nM in data set [2]. In data set [3] (setting [6]), this compound yielded a logD of 3.3. Also, the solubility at 24 h in data set [4] (setting [7]) worked out at 329 µM (≈ 153 µg/mL). For the same compound, in data set [5], the “Human plasma protein binding (% free)” value amounted to 8.4 % free.

For the compound `C[C@@H]1Cc2c([nH]c3ccccc23)[C@@H](c2ccnc(OCCNCCCF)c2Cl)N1CC(F)(F)CO` [Example 104, 3-((1R,3R)-1-(3-chloro-2-(2-((3-fluoropropyl)amino)ethoxy)pyridin-4-yl)-3-methyl-1,3,4,9-tetrahydro-2H-pyrido[3,4-b]indol-2-yl)-2,2-difluoropropan-1-ol], the values for the IC50 in data set [1] and in data set [2] were 0.72 nM and 0.17 nM, respectively. The pH-dependent lipophilicity (logD) in data set [3] (setting [6]) was 3. The compound also came in with a solubility at 24 h in data set [4] (setting [7]) of 431 µM (≈ 220 µg/mL). Further, in data set [5], the “Human plasma protein binding (% free)” value turned out to be 2.8 % free.

Regarding `Cc1c([C@@H]2c3[nH]c4ccccc4c3C[C@@H](C)N2CC(F)(F)F)ccnc1OCCNCCCF` [Example 106, 3-fluoro-N-(2-((3-methyl-4-((1R,3R)-3-methyl-2-(2,2,2-trifluoroethyl)-2,3,4,9-tetrahydro-1H-pyrido[3,4-b]indol-1-yl)pyridin-2-yl)oxy)ethyl)propan-1-amine], the IC50 in data set [1] amounted to 0.92 nM; in data set [2], 0.095 nM. The compound further had a logD in data set [3] (setting [6]) of 3.9. Moreover, the solubility at 24 h in data set [4] (setting [7]) is 264 µM (≈ 126 µg/mL). In data set [5], the “Human plasma protein binding (% free)” value was 0.34 % free.

Regarding `C[C@@H]1Cc2c([nH]c3ccc(F)cc23)[C@@H](c2c(F)cnc(OCCNCCCF)c2F)N1CC1(F)CC1` [Example 109, N-(2-((3,5-difluoro-4-((1R,3R)-6-fluoro-2-((1-fluorocyclopropyl)methyl)-3-methyl-2,3,4,9-tetrahydro-1H-pyrido[3,4-b]indol-1-yl)pyridin-2-yl)oxy)ethyl)-3-fluoropropan-1-amine], the IC50 in data set [1] was 1.2 nM; in data set [2], 0.41 nM. The logD in data set [3] (setting [6]) was more than 3.6. The compound also came in with a solubility at 24 h in data set [4] (setting [7]) of 176 µM (≈ 89.5 µg/mL). In data set [5], the “Human plasma protein binding (% free)” value is reported as 1.9 % free.

As to `Cc1c(OCCNCCCF)ncnc1[C@@H]1c2[nH]c3ccccc3c2C[C@@H](C)N1CC(F)(F)CO` [Example 115, 2,2-difluoro-3-((1S,3R)-1-(6-(2-((3-fluoropropyl)amino)ethoxy)-5-methylpyrimidin-4-yl)-3-methyl-1,3,4,9-tetrahydro-2H-pyrido[3,4-b]indol-2-yl)propan-1-ol], the values for the IC50 in data set [1] and in data set [2] were 1 nM and 0.31 nM, respectively. For the same compound, the logD in data set [3] (setting [6]) was found to be 2.1. For the same compound, the solubility at 24 h in data set [4] (setting [7]) came out at 983 µM (≈ 483 µg/mL). For the same compound, in data set [5], the “Human plasma protein binding (% free)” value is recorded as 11 % free.

Regarding `Cc1c(OCCNCCCF)ccc(F)c1[C@@H]1c2[nH]c3ccccc3c2C[C@@H](C)N1CC(F)(F)C(=O)O` [Example 118, 2,2-difluoro-3-((1R,3R)-1-(6-fluoro-3-(2-((3-fluoropropyl)amino)ethoxy)-2-methylphenyl)-3-methyl-1,3,4,9-tetrahydro-2H-pyrido[3,4-b]indol-2-yl)propanoic acid], the IC50 in data set [1] was determined as 1.2 nM; in data set [2], 5.5 nM. In data set [3] (setting [6]), this compound came in with a logD of 1.8. The compound further yielded a solubility at 24 h in data set [4] (setting [7]) of 111 µM (≈ 57.9 µg/mL). Also, in data set [5], the “Human plasma protein binding (% free)” value is given as 8.4 % free.

Turning to `Cc1c(OCCNCCCF)ccc(F)c1[C@@H]1c2[nH]c3ccccc3c2CC(C)(C)N1C[C@H](C)C(=O)O` [Example 134, (S)-3-((R)-1-(6-fluoro-3-(2-((3-fluoropropyl)amino)ethoxy)-2-methylphenyl)-3,3-dimethyl-1,3,4,9-tetrahydro-2H-pyrido[3,4-b]indol-2-yl)-2-methylpropanoic acid], in data set [1], the IC50 is 5.8 nM. Moreover, in data set [2], the IC50 was 1.6 nM and the “% downregulation (in brackets)” value amounted to 85%. In addition, the logD in data set [3] (setting [6]) came out at 0.6. The compound also yielded a solubility at 24 h in data set [4] (setting [7]) of more than 1000 µM. In addition, the “Human plasma protein binding (% free)” value in data set [5] was 36 % free.

In the case of `Cc1c(NCCNCCCF)ccc(F)c1[C@@H]1c2[nH]c3ccccc3c2C[C@@H](C)N1C[C@H](C)C(=O)O` [Example 135, (S)-3-((1R,3R)-1-(6-fluoro-3-((2-((3-fluoropropyl)amino)ethyl)amino)-2-methylphenyl)-3-methyl-1,3,4,9-tetrahydro-2H-pyrido[3,4-b]indol-2-yl)-2-methylpropanoic acid], the IC50 in data set [1] worked out at 160 nM; in data set [2], 16 nM. Further, the logD in data set [3] (setting [6]) is 0.5. For the same compound, the solubility at 24 h in data set [4] (setting [7]) is more than 1000 µM. Besides, the “Human plasma protein binding (% free)” value in data set [5] stood at 32 % free.

Consider `Cc1c(N(C)CCNCCCF)ccc(F)c1[C@@H]1c2[nH]c3ccccc3c2C[C@@H](C)N1C[C@H](C)C(=O)O` [Example 136, (S)-3-((1R,3R)-1-(6-fluoro-3-((2-((3-fluoropropyl)amino)ethyl)(methyl)amino)-2-methylphenyl)-3-methyl-1,3,4,9-tetrahydro-2H-pyrido[3,4-b]indol-2-yl)-2-methylpropanoic acid], for which the IC50 in data set [1] was 2 nM; in data set [2] it was more than 300 nM. Besides, in data set [3] (setting [6]), the logD turned out to be 1.1. Further, in data set [4] (setting [7]), the solubility at 24 h came out at 328 µM (≈ 168 µg/mL). Besides, in data set [5], the “Human plasma protein binding (% free)” value is given as 2.1 % free.

As for `C[C@@H]1Cc2c([nH]c3ccccc23)[C@@H](c2c(F)ccc(OCCN(C)CCCF)c2C(F)F)N1C[C@H](C)C(=O)O` [Example 148, (S)-3-((1R,3R)-1-(2-(difluoromethyl)-6-fluoro-3-(2-((3-fluoropropyl)(methyl)amino)ethoxy)phenyl)-3-methyl-1,3,4,9-tetrahydro-2H-pyrido[3,4-b]indol-2-yl)-2-methylpropanoic acid], the IC50 in data set [1] was found to be 1.1 nM; in data set [2], 0.42 nM. The “% downregulation (in brackets)” value in data set [2] is recorded as 68%. In addition, the logD in data set [3] (setting [6]) came out at 1.5. Moreover, in data set [4] (setting [7]), the solubility at 24 h was 788 µM (≈ 433 µg/mL). Besides, the “Human plasma protein binding (% free)” value in data set [5] was determined as 10 % free.

For orientation: IC50 means the concentration needed to halve the response being measured. Broadly, the logD is lipophilicity at a set pH, counting ionised and neutral species. As usually defined, the solubility is how much of the substance goes into solution per volume. The low end stands for little dissolved substance, the high end for much dissolved substance.

Values taken from patent US10221173B2, “Chemical compounds” (AstraZeneca AB, priority 2017, dated 2019).
